In patent publication US12344623B2, “Thiazolopyridine derivatives as adenosine receptor antagonists” (Merck Patent GmbH, priority 2019, dated 2025):

Columns and labels:
Format in all cases: cell-based
[1] = test system: mouse Pan T cells; assay: mTcell assay, cAMP, agonist NECA; settings: Mus musculus, T-cell
Source text: Adenosine (Ado) in tumor microenvironment can inhibit T cell activity by signaling through A2A receptors and suppress cytokine secretion by T cells. […] Potential A2A antagonists or A2A/A2B dual antagonists can rescue T cells from this inhibition. Herein, we describe the in vitro system we established using Pan T cells from mouse spleens to screen potential A2A antagonists or A2A/A2B dual antagonists for their activity. The method described involves the use of CD3/CD28 pre-coated beads to stimulate Pan T cells purified from mouse splenocytes, combined with the addition of A2A agonist along with potential A2A or A2A/A2B dual antagonists to evaluate potentiation of T cell cytokine production.
Pan T-cells are isolated from black 6 mice by manual dissociation and purified using a Miltenyi Pan T-cell isolation kit. The isolated T-cells are activated in 96 well plates for 48 hours using anti-CD3/CD28 beads in T-cell proliferation media.
After 48 hours, the T-cells are pooled, counted and suspended in serum free media containing 0.1% BSA. The cells are plated at 50,000 cells per well in 10 ul of media and incubated for 2 hours at 37° C. Test compounds are dispensed into the wells at a 10-point dose response, starting at a concentration of 10 uM. […] The plates are incubated for 30 minutes at 37° C. and assayed for cAMP levels using the Cisbio cAMP Dynamic2 reagent kit by adding 10 ul of the kit reagents to each well. The plates are incubated for 1 hour at room temperature and the HTRF signal is read on an Envision plate reader. The raw data is analyzed in Genedata Screener and the resulting data is loaded into the database.

[2] = target: T1, human A2B receptor (Homo sapiens, UniProt P29275); assay: Functional A2B receptor activity, recombinant HEK293 cells, cAMP (HTRF), agonist NECA; settings: read-out: Functional A2B receptor activity, HEK293, cAMP, IC50
T1 construct: expressed in transfected cells; host or cells: HEK293
T1 sequence (P29275 1-332): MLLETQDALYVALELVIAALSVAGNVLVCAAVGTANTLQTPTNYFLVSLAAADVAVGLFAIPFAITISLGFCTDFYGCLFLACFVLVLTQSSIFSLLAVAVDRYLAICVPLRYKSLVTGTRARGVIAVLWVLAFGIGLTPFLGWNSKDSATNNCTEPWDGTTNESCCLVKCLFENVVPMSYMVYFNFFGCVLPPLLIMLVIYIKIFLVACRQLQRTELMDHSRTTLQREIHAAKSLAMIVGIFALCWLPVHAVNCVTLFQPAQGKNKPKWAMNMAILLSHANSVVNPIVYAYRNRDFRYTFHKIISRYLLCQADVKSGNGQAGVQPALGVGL
Method in brief: (§1)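 Cellular cAMP measured by HTRF after 30 min incubation of cells with forskolin, test compounds and agonist. Data normalized to inhibitor control and DMSO neutral control, then curve-fitted.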

[3] = target: T2, human A1 receptor (Homo sapiens, UniProt P30542); assay: Functional A1 receptor activity, recombinant CHO cells, cAMP (HTRF), forskolin, agonist CPA; settings: recombinant CHO cells, forskolin, agonist CPA; read-out: Functional A1 receptor activity, CHO, cAMP, IC50
T2 construct: expressed in transfected cells; host or cells: CHO
T2 sequence (P30542 1-326): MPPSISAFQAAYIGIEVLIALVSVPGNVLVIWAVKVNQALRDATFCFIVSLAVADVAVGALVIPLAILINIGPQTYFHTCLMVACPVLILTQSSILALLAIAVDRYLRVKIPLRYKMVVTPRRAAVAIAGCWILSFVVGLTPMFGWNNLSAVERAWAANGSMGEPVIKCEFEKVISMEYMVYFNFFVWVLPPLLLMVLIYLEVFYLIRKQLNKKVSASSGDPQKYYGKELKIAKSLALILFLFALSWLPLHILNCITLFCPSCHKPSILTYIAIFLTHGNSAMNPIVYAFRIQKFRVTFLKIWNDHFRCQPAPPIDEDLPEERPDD
Method in brief: (§2)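 Recombinant CHO cells expressing A1 or A3 receptor (Gi-coupled) were stimulated with forskolin together with test compound and agonist (CPA for A1, IB-MECA for A3), incubated 30 min, then cellular cAMP was read by HTRF. Data were normalized to inhibitor control and DMSO neutral control, then curve-fitted.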

[4] = target: T3, human A3 receptor (Homo sapiens, UniProt P0DMS8); assay: Functional A3 receptor activity, recombinant CHO cells, cAMP (HTRF), forskolin, agonist IB-MECA; settings: recombinant CHO cells, forskolin, agonist IB-MECA; read-out: Functional A3 receptor activity, CHO, cAMP, IC50
T3 construct: expressed in transfected cells; host or cells: CHO
T3 sequence (P0DMS8 1-318): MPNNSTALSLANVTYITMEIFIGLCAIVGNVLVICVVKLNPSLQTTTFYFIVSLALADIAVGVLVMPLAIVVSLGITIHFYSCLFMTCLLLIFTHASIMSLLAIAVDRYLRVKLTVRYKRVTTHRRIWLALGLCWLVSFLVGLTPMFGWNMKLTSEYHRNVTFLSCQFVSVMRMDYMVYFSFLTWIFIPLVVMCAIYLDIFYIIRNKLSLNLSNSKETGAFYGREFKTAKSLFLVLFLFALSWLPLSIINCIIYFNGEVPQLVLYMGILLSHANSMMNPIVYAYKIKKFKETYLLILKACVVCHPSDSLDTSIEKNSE
Method in brief: as §2

[5] = target: T4, human A2A receptor (Homo sapiens, UniProt P29274); assay: Human T cells, endogenous A2A receptor, cAMP, agonist NECA; settings: read-out: hTcell data, cAMP, IC50
T4 sequence (P29274 whole entry): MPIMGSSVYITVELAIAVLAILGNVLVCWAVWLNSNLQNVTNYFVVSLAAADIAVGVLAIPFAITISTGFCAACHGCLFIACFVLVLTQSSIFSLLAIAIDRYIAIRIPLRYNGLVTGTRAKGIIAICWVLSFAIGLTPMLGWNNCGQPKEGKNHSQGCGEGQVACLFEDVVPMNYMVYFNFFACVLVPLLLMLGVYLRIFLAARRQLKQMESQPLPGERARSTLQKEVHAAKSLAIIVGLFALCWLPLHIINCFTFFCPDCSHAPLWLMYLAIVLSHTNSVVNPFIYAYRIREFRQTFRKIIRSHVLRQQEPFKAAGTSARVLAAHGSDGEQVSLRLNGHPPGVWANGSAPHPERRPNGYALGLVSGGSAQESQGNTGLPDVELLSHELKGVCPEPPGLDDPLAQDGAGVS
Procedure: The endogenous functional activity of the Gs-coupled human A2A receptor was measured in T cells, where this receptor is highly expressed. Determination of receptor activity was done by quantification of cAMP, which is a second messenger for adenosine receptors.
In short, human pan T cells were isolated from human PBMC (MACS Pan T Cell Isolation Kit, Miltenyi Biotec) that have been derived from fresh whole blood. The T cells were seeded in 384-well microtiter plates and treated with test compounds. […] Finally, HTRF reagents (cAMP Femto Kit, CisBio) were added to the wells, and after 1 h cellular cAMP levels were determined using the ENVISION (Perkin Elmer) plate reader.
The obtained raw data were normalized against the inhibitor control and the neutral control (DMSO) and the normalized data were fitted using Genedata Screener software.

[6] = target: T4, human A2A receptor; assay: Functional A2A receptor activity, recombinant HEK293 cells, cAMP (HTRF), agonist NECA; set-up: expressed in transfected cells; host or cells: HEK293; settings: read-out: Functional A2A receptor activity, HEK293, cAMP, IC50
Method in brief: as §1

How did the IC50 [1] turn out when `COc1cnc(N2CCOCC2)c2sc(NC(=O)N3CCCCC3)nc12` [drawing 212] was run?
Its IC50 is < 1000 nM.

What does the source list for `COc1nc(F)c(N2CCOCC2)c2sc(NC(=O)N3CC[C@]4(CCCOC4)C3)nc12` [Compound 10, (R)-7-Oxa-2-aza-spiro[4.5]decane-2-carboxylic acid (6-fluoro-4-methoxy-7-morpholin-4-yl-thiazolo[4,5-c]pyridin-2-yl)-amide]?
IC50 [2]: < 100 nM; IC50 [3]: > 1000 nM; IC50 [4]: > 1000 nM; IC50 [1]: < 10 nM; IC50 [5]: < 10 nM; IC50 [6]: < 10 nM

`COc1ccc(N2CCOCC2)c2sc(NC(=O)N3CCC4(CCCO4)CC3)nc12` [drawing 209] was tested. Which IC50 [1] did it give?
The IC50 was < 1000 nM.

How did the IC50 [1] turn out when `COc1cnc(N2CCOCC2)c2sc(NC(=O)N3CCC4(CCCO4)CC3)nc12` [drawing 208] was run?
The IC50 was > 1000 nM.

How did the IC50 [1] turn out when `COc1cnc(N2CCOCC2)c2sc(NC(=O)N3CCOCC3)nc12` [drawing 213] was run?
Its IC50 is > 1000 nM.

For `COc1cnc(N2CCOCC2)c2sc(NC(=O)N3CCC(CO)CC3)nc12` [drawing 207], which IC50 [1] is on record?
Its IC50 is < 1000 nM.

How did the IC50 [2] turn out when `COc1ncc(-c2ccoc2)c2sc(NC(=O)N3CCC4(CCOCC4)C3)nc12` [Compound 52, 8-Oxa-2-aza-spiro[4.5]decane-2-carboxylic acid (7-furan-3-yl-4-methoxy-thiazolo[4,5-c]pyridin-2-yl)-amide] was run?
Its IC50 is < 10 nM.

What about the IC50 [3] of the same compound?
The IC50 was > 1000 nM.

And the IC50 [4]?
Its IC50 is > 1000 nM.

What about the IC50 [1] of the same compound?
The IC50 was < 100 nM.

What about the IC50 [6] of the same compound?
The IC50 was < 10 nM.

What does the source list for `COC(=O)N(C)Cc1ccc(C(=O)Nc2nc3c(OC)ncc(-c4ccccc4)c3s2)cc1` [Compound 97, [4-(4-Methoxy-7-phenyl-thiazolo[4,5-c]pyridin-2-ylcarbamoyl)-benzyl]-methyl-carbamic acid methyl ester]?
IC50 [2]: < 100 nM; IC50 [3]: > 1000 nM; IC50 [4]: > 1000 nM; IC50 [5]: < 100 nM; IC50 [6]: < 10 nM

For `COc1ncc([C@H]2COCCO2)c2sc(NC(=O)N3CCC4(CCOCC4)C3)nc12` [Compound 152, 8-Oxa-2-aza-spiro[4.5]decane-2-carboxylic acid ((S)-7-[1,4]dioxan-2-yl-4-methoxy-thiazolo[4,5-c]pyridin-2-yl)-amide], which IC50 [1] is on record?
The IC50 was < 100 nM.

What about the IC50 [5] of the same compound?
Its IC50 is < 10 nM.

With `COc1ncc(C2COCCO2)c2sc(NC(=O)c3ccc(-c4nnn[nH]4)cc3)nc12` (stereo not shown) [Compound 164, N-(7-[1,4]Dioxan-2-yl-4-methoxy-thiazolo[4,5-c]pyridin-2-yl)-4-(1H-tetrazol-5-yl)-benzamide] as the compound, how does the IC50 [2] read?
Its IC50 is < 10 nM.

What about the IC50 [3] of the same compound?
The IC50 was > 1000 nM.

And the IC50 [4]?
The IC50 was > 1000 nM.

What about the IC50 [5] of the same compound?
The IC50 was < 100 nM.

And the IC50 [6]?
The IC50 was < 10 nM.

Which IC50 [2] does the source give for `COc1ncc(C2=CCOCC2)c2sc(NC(=O)Nc3ccc(N4CCCC4=O)cc3)nc12` [Compound 89, 3-[7-(3,6-dihydro-2H-pyran-4-yl)-4-methoxy-[1,3]thiazolo[4,5-c]pyridin-2-yl]-1-[4-(2-oxopyrrolidin-1-yl)phenyl]urea] here?
The IC50 was < 100 nM.

What about the IC50 [3] of the same compound?
Its IC50 is > 1000 nM.

What about the IC50 [4] of the same compound?
Its IC50 is > 1000 nM.

What about the IC50 [5] of the same compound?
Its IC50 is < 10 nM.

What about the IC50 [6] of the same compound?
The IC50 was < 10 nM.

What does the source list for `COc1ncc(C2COCCO2)c2sc(NC(=O)c3ccc(C(=O)O)cc3)nc12` (stereo not shown) [Compound 161, N-(7-[1,4]Dioxan-2-yl-4-methoxy-thiazolo[4,5-c]pyridin-2-yl)-terephthalamic acid]?
IC50 [2]: < 100 nM; IC50 [3]: > 1000 nM; IC50 [4]: > 1000 nM; IC50 [5]: < 100 nM; IC50 [6]: < 10 nM

Which results are given for `COc1ncc(-c2cccc(Oc3cnn(C)c3)c2)c2sc(NC(=O)N3CCC4(CCOCC4)C3)nc12` [Compound 147, 8-Oxa-2-aza-spiro[4.5]decane-2-carboxylic acid {4-methoxy-7-[3-(1-methyl-1H-pyrazol-4-yloxy)-phenyl]-thiazolo[4,5-c]pyridin-2-yl}-amide]?
IC50 [2]: < 10 nM; IC50 [3]: > 1000 nM; IC50 [4]: < 1000 nM; IC50 [1]: < 10 nM; IC50 [6]: < 10 nM

Which results are given for `COc1ncc(C2=CCOCC2)c2sc(NC(=O)N3CCC(N4C(=O)CSC4=O)CC3)nc12` [Compound 91, N-[7-(3,6-dihydro-2H-pyran-4-yl)-4-methoxy-[1,3]thiazolo[4,5-c]pyridin-2-yl]-4-(2,4-dioxo-1,3-thiazolidin-3-yl)piperidine-1-carboxamide]?
IC50 [2]: < 10 nM; IC50 [3]: > 1000 nM; IC50 [4]: > 1000 nM; IC50 [5]: < 10 nM; IC50 [6]: < 10 nM

`COc1ncc(C2=CCOCC2)c2sc(NC(=O)c3c[nH]cn3)nc12` [Compound 65, 1H-Imidazole-4-carboxylic acid [7-(3,6-dihydro-2H-pyran-4-yl)-4-methoxy-thiazolo[4,5-c]pyridin-2-yl]-amide] was tested. Which IC50 [2] did it give?
Its IC50 is < 10 nM.

And the IC50 [3]?
Its IC50 is < 100 nM.

What about the IC50 [4] of the same compound?
Its IC50 is > 1000 nM.

And the IC50 [5]?
Its IC50 is < 10 nM.

And the IC50 [6]?
The IC50 was < 10 nM.

How did the IC50 [1] turn out when `COc1ccc(-c2ccccc2)c2sc(NC(=O)NCCN3CCCCC3)nc12` [drawing 206] was run?
The IC50 was > 1000 nM.

`COc1cnc(C2CCOCC2)c2sc(NC(=O)N3CCC(O)CC3)nc12` [drawing 210] was tested. Which IC50 [1] did it give?
Its IC50 is < 1000 nM.

For `COc1ccc(N2CCOCC2)c2sc(NC(=O)N3CCCCC3)nc12` [drawing 211], which IC50 [1] is on record?
Its IC50 is < 1000 nM.

With `COc1ncc(C2=CCC(F)(F)CC2)c2sc(NC(=O)N3CCC4(CCOCC4)C3)nc12` [Compound 63, 8-Oxa-2-aza-spiro[4.5]decane-2-carboxylic acid [7-(4,4-difluoro-cyclohex-1-enyl)-4-methoxy-thiazolo[4,5-c]pyridin-2-yl]-amide] as the compound, how does the IC50 [2] read?
The IC50 was < 100 nM.

And the IC50 [3]?
Its IC50 is < 1000 nM.

And the IC50 [4]?
Its IC50 is > 1000 nM.

And the IC50 [5]?
Its IC50 is < 10 nM.

What about the IC50 [6] of the same compound?
Its IC50 is < 10 nM.

With `COc1cnc(N2CCOCC2)c2sc(NC(=O)N3CCC4(CCN(C)C4=O)CC3)nc12` [drawing 205] as the compound, how does the IC50 [1] read?
Its IC50 is > 1000 nM.

What does the source list for `COc1ncc(C2=CCOCC2)c2sc(NC(=O)c3ccc(C(=O)O)cc3)nc12` [Compound 72, 4-{[7-(3,6-dihydro-2H-pyran-4-yl)-4-methoxy-[1,3]thiazolo[4,5-c]pyridin-2-yl]carbamoyl}benzoic acid]?
IC50 [2]: < 10 nM; IC50 [3]: < 1000 nM; IC50 [4]: > 1000 nM; IC50 [5]: < 100 nM; IC50 [6]: < 10 nM
